Entries after “also recorded” stand apart in the source; their conditions may differ.
Experiments:
βTRP = target: T1, βTRP (Homo sapiens, UniProt Q9NZQ8); assay: Membrane potential (MP) assay in βTRP-CHO cells, FLEXStation with Membrane Potential Dye; assay type: cell-based; conditions: for depolarization / MP response in βTRP-CHO cells: βTRP-CHO cell line (A2-18); for EC50: βTRP-CHO cells, membrane potential, read-out: estimated EC50 of depolarization
T1 construct: expressed in transfected cells; control line A1-5
T1 sequence (Q9NZQ8 1-1165): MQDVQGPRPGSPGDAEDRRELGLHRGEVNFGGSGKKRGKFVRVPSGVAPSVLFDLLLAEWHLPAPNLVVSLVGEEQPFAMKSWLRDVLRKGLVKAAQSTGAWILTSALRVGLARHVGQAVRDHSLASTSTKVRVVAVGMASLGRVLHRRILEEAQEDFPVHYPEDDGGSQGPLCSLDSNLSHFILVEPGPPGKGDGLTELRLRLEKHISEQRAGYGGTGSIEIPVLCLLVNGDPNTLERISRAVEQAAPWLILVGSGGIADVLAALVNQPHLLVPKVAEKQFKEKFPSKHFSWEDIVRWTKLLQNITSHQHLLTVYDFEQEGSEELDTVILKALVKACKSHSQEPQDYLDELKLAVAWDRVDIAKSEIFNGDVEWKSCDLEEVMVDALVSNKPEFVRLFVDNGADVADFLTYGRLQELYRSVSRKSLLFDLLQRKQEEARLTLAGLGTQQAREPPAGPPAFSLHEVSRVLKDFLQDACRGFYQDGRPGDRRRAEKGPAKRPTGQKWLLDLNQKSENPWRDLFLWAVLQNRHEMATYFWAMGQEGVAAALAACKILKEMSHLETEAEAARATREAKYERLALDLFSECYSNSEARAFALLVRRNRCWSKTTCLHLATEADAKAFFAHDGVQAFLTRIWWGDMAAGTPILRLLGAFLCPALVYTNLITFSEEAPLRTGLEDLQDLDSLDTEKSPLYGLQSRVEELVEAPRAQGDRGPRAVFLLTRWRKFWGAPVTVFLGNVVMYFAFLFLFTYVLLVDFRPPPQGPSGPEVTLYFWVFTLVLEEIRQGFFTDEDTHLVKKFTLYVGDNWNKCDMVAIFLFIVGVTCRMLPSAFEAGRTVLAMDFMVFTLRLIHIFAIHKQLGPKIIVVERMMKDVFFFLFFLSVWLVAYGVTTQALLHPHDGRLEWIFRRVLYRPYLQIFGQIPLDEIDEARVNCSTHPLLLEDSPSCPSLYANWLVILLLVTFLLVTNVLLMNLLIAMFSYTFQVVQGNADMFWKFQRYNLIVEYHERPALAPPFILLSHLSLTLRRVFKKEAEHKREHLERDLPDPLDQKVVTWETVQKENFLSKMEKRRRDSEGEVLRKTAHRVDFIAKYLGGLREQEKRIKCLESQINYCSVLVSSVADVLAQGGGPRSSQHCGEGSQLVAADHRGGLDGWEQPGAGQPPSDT
Description: (§1) Control and βTRP-CHO cells were plated in 96-well plates 2-d before the assay. [Ca^2+]i and membrane potential (MP) responses to ATP (30 μM added at 20 sec) were measured with FLEXStation® and correspondent dyes from Molecular Devices (Sunnyvale, Calif.).
(§2) The following protocol is optimized for the measurement of membrane potential (MP) in 96-well format using Molecular Devices' Membrane Potential Dye (Cat #R-8034) on the FLEXStation (Molecular Devices). It is expected to be applicable or adaptable to the 384-well format assay with the FLIPR^384 system.
A CHO-K1 based stable cell line expressing βTRP (designated “Line A2-18” herein) is used for βTRP high throughput screening according to the follow protocol: • 1. Seed A2–18 βTrp-CHO cell and the control line (A1-5) to 96-well plates. • 2. Grow the cells for 24–48 h in DMEM medium to 85–95% confluency. • 3. Prepare following reagents immediately before the assay: • i. Assay buffer: dilute Component B of the FLIPR® assay kit and adjust pH to 7.4 with 1 N NaOH. No probenecid was needed. • ii. MP dye: suspend a vial of Component A of the FLIPR® assay kit with 10 ml of the assay buffer. • iii. Compound solutions: dilute DMSO stocks of the testing compounds to a 5× solution with the assay buffer. Raise Ca^2+ concentration in the compound solutions to 12.5 mM with 1 M CaCl2. • 4. Carefully remove the culture medium from all wells. • 5. Add 50 μl assay buffer and 50 μl MP dye. • 6. Incubate the plates at 37° C. for 30–60 minutes. • 7. Set the FLEXStation to MP assay mode and to 37° C. • 8. Transfer the cell plate and compound plate to FLEXStation. • 9. Record baseline for 18 sec (Ex 530, Em560). • 10. Add the 5× compound solutions to the cells and read another 100 sec. • 11. Save and analyze data. Reagent List • 1. Assay buffer: Hank's Balanced Salt Solution (HBSS) with 20 mM Hepes, pH 7.4 • 2. MP dye: Molecular Devices Corporation, Cat#8034 (for FLIPR) • 3. Positive control: ATP 10–100 μM (a purinergic receptor agonist) Calcimycin (A23187) 5–10 μM (a calcium ionophore) • 4. Antagonist control: • i. 2-APB 75 μM (from Tocris, TRP channel and IP3 receptor blocker); • ii. U73122 10 μM (from Sigma Chemicals, PLC inhibitor). Other Experimental Conditions • 1. The Cells: • iii. Maintenance: DMEM with 10% FCS and 200 μg/ml G418; Passaged 1–2 time/week with trypsin-EDTA. • iv. Confluency: 85–95% by the time of assay. • v. Plating: Regular or pre-coated plates; 24–48 h before assay. • vi. Passage: up to the 10th passage.

control (A1-5) CHO cells = assay: Membrane potential (MP) assay in control CHO cells (A1-5); assay type: cell-based, Chinese hamster; conditions: control CHO line (A1-5)
Description: as §1, §2
A CHO-K1 based stable cell line expressing βTRP (designated “Line A2-18” herein) is used for βTRP high throughput screening according to the follow protocol: • 1. Seed A2–18 βTrp-CHO cell and the control line (A1-5) to 96-well plates. • 2. Grow the cells for 24–48 h in DMEM medium to 85–95% confluency. • 3. Prepare following reagents immediately before the assay: • i. Assay buffer: dilute Component B of the FLIPR® assay kit and adjust pH to 7.4 with 1 N NaOH. No probenecid was needed. • ii. MP dye: suspend a vial of Component A of the FLIPR® assay kit with 10 ml of the assay buffer. • iii. Compound solutions: dilute DMSO stocks of the testing compounds to a 5× solution with the assay buffer. Raise Ca^2+ concentration in the compound solutions to 12.5 mM with 1 M CaCl2. • 4. Carefully remove the culture medium from all wells. • 5. Add 50 μl assay buffer and 50 μl MP dye. • 6. Incubate the plates at 37° C. for 30–60 minutes. • 7. Set the FLEXStation to MP assay mode and to 37° C. • 8. Transfer the cell plate and compound plate to FLEXStation. • 9. Record baseline for 18 sec (Ex 530, Em560). • 10. Add the 5× compound solutions to the cells and read another 100 sec. • 11. Save and analyze data. Reagent List • 1. Assay buffer: Hank's Balanced Salt Solution (HBSS) with 20 mM Hepes, pH 7.4 • 2. MP dye: Molecular Devices Corporation, Cat#8034 (for FLIPR) • 3. Positive control: ATP 10–100 μM (a purinergic receptor agonist) Calcimycin (A23187) 5–10 μM (a calcium ionophore) • 4. Antagonist control: • i. […]

Row | Structure (SMILES) | depolarization / MP response in βTRP-CHO cells (βTRP) | EC50 (βTRP) [µM] | depolarization / MP response in control cells (control (A1-5) CHO cells) | other results
1 | CNc1ccc2oc(C[C@H]3O[C@@]4(CC[C@H]3C)O[C@H]([C@H](C)C(=O)c3ccc[nH]3)[C@H](C)C[C@H]4C)nc2c1C(=O)O [calcimycin, Calcimycin] | dose-dependently induced depolarization | ~0.8 | No effect | depolarization / MP response in βTRP-CHO cells (βTRP; listed as A23187): induced a βTRP cell specific depolarization
2 | C=CC[C@H](C)[C@H](C)C[C@@H](O)[C@H](O)[C@@H]1CC[C@@]2(C)O[C@@]3(C)C[C@@]4(C)O[C@H]5/C=C\C[C@H]6O[C@H]7C[C@H]8O[C@H]9C[C@@]%10(C)O[C@@](C)([C@@H]%11CC[C@H]%12O[C@@]%13(C)C[C@H]%14O[C@@]%15(C)C[C@H]%16O[C@@]%17(C)C[C@@H](O)[C@H]([C@@H]%18O[C@H]%19[C@H](O)[C@@H](O)[C@H](C[C@H](O)C[C@@H](O)[C@@H]%20O[C@H]%21[C@H](O)[C@@H](O)[C@H]([C@@H]%22O[C@@H]%23[C@H](O)[C@H]%24O[C@H]%25C[C@H]%26O[C@@H](C[C@H](O)[C@@H](O)[C@H]%27O[C@H]%28[C@H](O)[C@H]%29O[C@H]%30C[C@H]%31O[C@H]%32[C@@H](O)[C@@H](O)[C@H]([C@H](C)[C@H](O)[C@H](C)CC[C@H](OS(=O)(=O)O)[C@H](O)[C@H](C)C[C@@H](O)C(=C)/C(C)=C/CO)O[C@@H]%32[C@H](O)C[C@]%31(C)O[C@@H]%30C[C@]%29(C)O[C@@H]%28C[C@H]%27O)[C@H](OS(=O)(=O)O)[C@H](O)[C@@H]%26O[C@@H]%25C[C@@H]%24O[C@H]%23[C@H](O)[C@H]%22O)O[C@H]%21C[C@H]%20O)O[C@H]%19C[C@H]%18O)O[C@@H]%17[C@H](O)[C@]%16(C)O[C@@H]%15CC[C@]%14(C)O[C@@H]%13C[C@@H]%12O%11)[C@H](O)C[C@@H]%10O[C@]9(C)CC[C@]8(C)O[C@]7(C)C[C@@H]6O[C@@H]5C[C@@H]4O[C@@H]3C[C@@H]2O1 [MTX, maitotoxin] |  |  |  | MP response at low Ca2+ (βTRP; 1.26 mM Ca2+ in assay buffer): lack of action; [Ca2+]i or MP increase at raised Ca2+ (βTRP; Ca2+ raised to 2.5–5 mM): significantly enhanced
3 | NCCOB(c1ccccc1)c1ccccc1 [2-APB] |  |  |  | suppression of MP response to ATP (βTRP; inhibitor added at the same time as ATP): over 50%; suppression of MP response to calcimycin (βTRP; inhibitor added at the same time as calcimycin): over 50%
4 | COc1ccc2c(c1)CC[C@@H]1[C@@H]2CC[C@]2(C)[C@@H](NCCCCCCN3C(=O)C=CC3=O)CC[C@@H]12 [U73122] |  |  |  | effect on ATP-induced MP response after pre-incubation (βTRP; 30 minute pre-incubation before ATP): inhibited
5 | Nc1ncnc2c1ncn2[C@@H]1O[C@H](COP(=O)(O)OP(=O)(O)OP(=O)(O)O)[C@@H](O)[C@H]1O [ATP] | present only in βTRP cells; also recorded: dose-dependently induced depolarization | ~11 | No effect | 
6 | CCCCCCC[N+](CC)(CC)CCCCc1ccc(Cl)cc1 [Clofilium] | triggered depolarization |  | triggered depolarization | 

Reference: patent US7087394B2, “Methods and compositions for treating and diagnosing diabetes and related diseases involving beta-TRP” (Metabolex, Inc., priority 2003, dated 2006)
